Read-outs that look alike come from different tables or passages of the source.

Data set [1] has as its system HT-29 cells. Description: Intracellular ROS by flow cytometry with CM-H2-DCF-DA. In kind it is cell-based, human. The conditions noted are these: 24 h; for intracellular ROS (DCF) after high concentration: 500 nM; for change in DCF fluorescence (intracellular ROS) vs vehicle: 50 nM. For orientation: Flow cytometry measures light scatter and fluorescence of single cells or particles in a stream.

Data set [2] addresses T1, NOX2 (Homo sapiens, UniProt P04839). Description: PMA-induced superoxide anion luminescence assay, differentiated HL-60 cells. In kind it is cell-based.
Data set [3] relates to HT-29 cells. Briefly: Colony formation. In kind it is cell-based, human.
Data set [4] deals with HT-29 cells. Briefly: Seahorse oxygen consumption rate / extracellular acidification rate. In kind it is cell-based, human.
For data set [5], the system named is HT-29 cells.
The test system of data set [6] is HT-29 cells. Description: MTT cell growth assay. The format is cell-based, human. The settings on record: for IC50: Homo sapiens, HT-29, 72 h, read-out: IC50 inhibition of HT-29 cell proliferation; for 50% growth inhibition of HT-29 cells reached within 72 h: 100 nM, time course up to 72 h. On the technique in general: Tetrazolium assays rely on reduction of a dye to a coloured formazan, in cell work by metabolically active cells.

Data set [7] addresses T1, NOX2. Briefly: PMA-induced superoxide anion luminescence assay, PMNs. The format is cell-based.
Data set [8] concerns HT-29 cells. Description: HT-29 cell growth by cell counting after SOD/catalase. The conditions noted are these: 96 h, 0-2000 U/ml, significant at ≥ 500 U/ml. The format is cell-based, human.
The mark [9] stands for this setting: ratio of NOX2 IC50 values, PMN vs HL-60.
Where [10] appears, read: read-out: 10-day treatment IC50, colony formation, HT-29, 10-day exposure.
Where [11] appears, read: read-out: 24-h treatment IC50, cellular respiration (OCR), HT-29, 24 h.
The mark [12] stands for this setting: read-out: 30-min treatment IC50, cellular respiration (OCR), HT-29, 30 min.
Where [13] appears, read: read-out: 60-min treatment IC50, cellular respiration (OCR), HT-29, 60 min.
[14] abbreviates: Homo sapiens, HT-29, 240 h, read-out: 10-day treatment IC50, colony formation.
Where [15] appears, read: Homo sapiens, HT-29, read-out: 2-h treatment IC50, colony formation.
Setting [16] is: Homo sapiens, HT-29, 1 h, read-out: 60-min treatment IC50, cellular respiration (OCR).
Setting [17] is: Homo sapiens, HT-29, 24 h, read-out: 24-h treatment IC50, cellular respiration (OCR).
Setting [18] is: Homo sapiens, HT-29, 1 h, read-out: 60-min treatment IC50, cellular respiration (OCR), HT-29, 60 min.
The mark [19] stands for this setting: Homo sapiens, HT-29, 24 h, read-out: 24-h treatment IC50, cellular respiration (OCR), HT-29, 24 h.

Consider `COC(=O)c1ccc2c(c1)[I+]c1ccccc1-2.Cc1ccc(S(=O)(=O)[O-])cc1` [compound 140, Dibenz[b,d]iodolium, 3-(methoxycarbonyl)-, salt with 4-methyl-benzenesulfonic acid (1:1)], for which, in data set [1], the “intracellular ROS (DCF) after high concentration” value (“intracellular ROS (DCF)” for short) is reported as “did not demonstrate this effect”. Moreover, the “fold more potent in HL-60 leukemia line compared to PMNs” value (from here on “fold more potent in HL-60 leukemia line”) in data set [2] (setting [9]) is on record as 2- to 5 fold. For the same molecule, the IC50 in data set [3] (setting [10]) is 40 ± 32 nM; in data set [4] (setting [11]) it was 76 ± 21 nM; in data set [4] (setting [12]), 678 ± 201 nM; in data set [4] (setting [13]) it was 475 ± 116 nM.
`c1ccc2c(c1)[I+]c1ccccc1-2` [DPI, Diphenylene iodonium, reference compound]: the “change in DCF fluorescence (intracellular ROS) vs vehicle” value (from here on “change in DCF fluorescence”) in data set [1] was “left-shift (decrease) in DCF fluorescence”. Moreover, the “intracellular ROS (DCF)” value in data set [1] is listed as “increases in intracellular ROS”. Further, the “effect on mitochondrial ROS production (MitoSox)” value in data set [5] (1 μM, 2 h) is given as “right shift in MitoSox fluorescence”; in data set [5] (concentrations ≤ 200 nM, 24 h), “no effect”. Also, the IC50 is 39 ± 23 nM in data set [3] (setting [14]); 9260 nM in data set [3] (setting [15]); around 450 nM in data set [6]; 4570 nM in data set [4] (setting [16]); 200 ± 245 nM in data set [4] (setting [17]). Further, the “decrease in oxygen consumption” value in data set [4] (2 μM, immediate effect) stood at 80%. Besides, the “concentration at which ECAR increased” value in data set [4] (HT-29, 24-h treatment) stood at 316 nM. The “concentration at which OCR began to decrease” value in data set [4] (HT-29, 24-h treatment) was 31.6 nM.
In the case of `Brc1ccc2c(c1)[I+]c1cc(Br)ccc1-2.[Br-]` [compound 104, Dibenziodolium, 3,7-dibromo-, bromide], the “change in DCF fluorescence” value in data set [1] was “left-shift (decrease) in DCF fluorescence”. The “intracellular ROS (DCF)” value in data set [1] was “did not demonstrate this effect”. The IC50 in data set [7] is 481 ± 44 nM; in data set [3] (setting [14]) it was 9 ± 2 nM; in data set [3] (setting [15]), 1220 nM; in data set [6] it was 150 to 250 nM; in data set [4] (setting [16]), 1470 nM; in data set [4] (setting [17]), 74 ± 54 nM. In addition, in data set [2] (setting [9]), the “fold more potent in HL-60 leukemia line” value is 2- to 5 fold. For the same molecule, in data set [6], the “50% growth inhibition of HT-29 cells reached within 72 h” value is given as “achieved 50% growth inhibition”.
As to `O=[N+]([O-])c1cccc2c1-c1c(cccc1[N+](=O)[O-])[I+]2.[Br-]` [compound 521, Dibenziodolium, 1,9-dinitro-, salt with bromide (1:1)], the IC50 came out at 488 ± 101 nM in data set [3] (setting [10]), 1670 nM in data set [4] (setting [12]) and 1000 nM in data set [4] (setting [13]). Moreover, the “24-h treatment IC50, cellular respiration (OCR)” value in data set [4] (HT-29, 24 h) is given as “No effect”.
For the molecule `O=[N+]([O-])c1ccc2c(c1)[I+]c1cc([N+](=O)[O-])ccc1-2.[Br-]` [compound 392, Dibenziodolium, 3,7-dinitro-, bromide], in data set [1], the “change in DCF fluorescence” value was “left-shift (decrease) in DCF fluorescence”. In addition, the “intracellular ROS (DCF)” value in data set [1] is listed as “did not demonstrate this effect”. In addition, the IC50 in data set [7] was 850 ± 197 nM; in data set [3] (setting [14]), 27 ± 28 nM; in data set [4] (setting [18]) it was 2180 nM; in data set [4] (setting [19]), around 800 nM; in data set [4] (setting [11]) it was 801 ± 194 nM. Also, in data set [2], the “fold more potent in HL-60 leukemia line” value is given as 2- to 5 fold. In addition, in data set [4] (24 h, concentrations ≤ 316 nM), the “effect on cellular metabolic activity (OCR/ECAR)” value is listed as “no adverse effects”.
In the case of `O=[N+]([O-])c1ccc2c(c1)[I+]c1ccccc1-2.[Cl-]` [compound 428, Dibenz[b,d]iodolium, 3-nitro-, chloride], the “change in DCF fluorescence” value in data set [1] was “left-shift (decrease) in DCF fluorescence”. In data set [1], the “intracellular ROS (DCF)” value is given as “increases in intracellular ROS”. The IC50 in data set [3] (setting [14]) came out at 11 ± 6 nM; in data set [3] (setting [15]), 77 ± 12 nM; in data set [3] (Homo sapiens, HT-29, read-out: 6-h treatment IC50, colony formation), 29 ± 23 nM; in data set [4] (setting [18]), 211 ± 33 nM; in data set [4] (setting [19]) it was 45 ± 23 nM. In data set [6], the “50% growth inhibition of HT-29 cells reached within 72 h” value was “achieved 50% growth inhibition”.

B1: catalase: ROS detoxifying enzyme, human catalase (Sigma Aldrich) (protein, UniProt P04040 2-527, looked up)
Catalase: ADSRDPASDQMQHWKEQRAAQKADVLTTGAGNPVGDKLNVITVGPRGPLLVQDVVFTDEMAHFDRERIPERVVHAKGAGAFGYFEVTHDITKYSKAKVFEHIGKKTPIAVRFSTVAGESGSADTVRDPRGFAVKFYTEDGNWDLVGNNTPIFFIRDPILFPSFIHSQKRNPQTHLKDPDMVWDFWSLRPESLHQVSFLFSDRGIPDGHRHMNGYGSHTFKLVNANGEAVYCKFHYKTDQGIKNLSVEDAARLSQEDPDYGIRDLFNAIATGKYPSWTFYIQVMTFNQAETFPFNPFDLTKVWPHKDYPLIPVGKLVLNRNPVNYFAEVEQIAFDPSNMPPGIEASPDKMLQGRLFAYPDTHRHRLGPNYLHIPVNCPYRARVANYQRDGPMCMQDNQGGAPNYYPNSFGAPEQQPSALEHSIQYSGEVRRFNTANDDNVTQVRAFYVNVLNEEQRKRLCENIAGHLKDAQIFIQKKAVKNFTEVHPDYGSHIQALLDKYNAEKPKNAIHTFVQSGSHLAAREKANL
B1: the “effect on proliferation of HT-29 cells vs control-treated cells” value in data set [8] is on record as “reduced the proliferation”.
